Assay results as given in patent US20110263668A1, “Beta 3-Adrenoreceptor Agonists for the Treatment of Cardiac Hypertrophy and Heart Failure” (THE JOHNS HOPKINS UNIVERSITY, priority 2009, published 2011).

Tested on: β3−/− and WT mice with transverse aortic constriction (TAC)
Experiment: Echocardiography in β3−/− and WT mice after TAC with BH4 in the diet
Format: in vivo, mouse
Settings: BH4 200 mg/kg/day in soft diet
Method: Experimental Model. Baseline echocardiography was performed on 8-week, 4-month, and 14-18 month-old homozygous β3^−/− mice (n=57 total, original breeding pairs kindly provided by Dr. Bradford Lowell (Klein et al. (1999)) and age-matched FVB background WT controls (n=13, Jackson Laboratories, Bar Harbor, Me.). Transverse aortic constriction (TAC) was performed on 8-week-old male β3^−/− (n=21) and age-matched male WT controls (n=24) as previously described (Takimoto et al. (2005)). Briefly, after anesthesia with isoflurane (2%), the chest was opened through a small thoracic window between ribs 2 and 4, and a 25 G needle placed on the transverse aorta. This needle size was chosen to elicit a milder response as initial studies using a standard TAC model (27 G needle) led to pulmonary edema and 100% early mortality in β3^−/− mice. The band was secured using a 7.0 prolene suture, the needle was then removed and the chest closed. Twelve animals per strain underwent sham surgery. To measure pressure changes after TAC, pressure volume loops were obtained using a Millar micromanometer catheter as previously described (Barouch et al. (2002)). Animals were sacrificed 3 or 9 weeks after TAC and myocardial tissue preserved in 10% formalin or snap-frozen in liquid nitrogen for subsequent analysis. To determine whether there were any differences in proximal pressures after TAC between strains, a 1.4 F pressure catheter (Millar Instruments, Houston, Tex.) was advanced into the ascending aorta from the LV, and pressures recorded before and after TAC. […] In vivo cardiac geometry and function were serially assessed by transthoracic echocardiography (Acuson Sequoia C256, 13 MHz transducer; Siemens) in conscious mice. M-mode LV end-systolic and end-diastolic cross-sectional diameter (LVESD, LVEDD), and the mean of septal and posterior wall thicknesses were determined from an average of 3-5 cardiac cycles. LV fractional shortening (% FS) and LV mass were determined using a cylindrical model as previously described (Barouch et al. (2003)).

With `C[C@H](O)[C@H](O)[C@H]1CNc2nc(N)[nH]c(=O)c2N1` [BH4, tetrahydrobiopterin] the “change in fractional shortening” value (WT-TAC/BH4, 3 weeks of TAC) was −1.8±3.0%, the “change in fractional shortening” value (β3−/− TAC/BH4, 3 weeks of TAC) was −0.4±0.2% and the “increase in calculated LV mass” value (β3−/− TAC/BH4, 3 weeks of TAC) was “+15.0±6.8%”.
